Some test systems named below: A498 renal; A549 NSCLC; CAKI-1 renal; HCC-2998 colon; HT29 colon; MCF7 breast; NCI/ADR-RES ovarian; OVCAR-3 ovarian; SNB-19 CNS; U251 CNS.
What all share (assay): DTP human tumour cell line panel, 48 h

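Cells were grown in 96-well plates and exposed to each compound for 48 hours at five concentrations; endpoints were interpolated linearly between bracketing concentrations, or set to the highest concentration if not reached. The concentration for 50% growth inhibition is given as GI50. TGI: concentration producing complete growth inhibition.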

By GI50 is commonly meant the concentration that inhibits growth by half. As usually defined, the TGI is the concentration at which net growth stops. A higher TGI goes with less potent growth arrest. Consider `COc1ccc(-n2nc(C)c3c(Nc4ccc(NC(=O)Nc5cc(C(F)(F)F)ccc5F)cc4)ncnc32)cc1`, for which the GI50 in the experiment on A498 renal is 2.82 µM; with A549 NSCLC, 2.35 µM; in the experiment with CAKI-1 renal it was 2.01 µM; with HCC-2998 colon it was 3.19 µM; in the experiment on HT29 colon, 2.31 µM; in the experiment on MCF7 breast it was 2.69 µM. Further, the GI50 is 2.93 µM with NCI/ADR-RES ovarian, 2.4 µM in the experiment on OVCAR-3 ovarian, 3.66 µM with SNB-19 CNS and 1.77 µM with U251 CNS. Also, the TGI with A498 renal is 7.18 µM; in the experiment on A549 NSCLC it was 5.86 µM; in the experiment with CAKI-1 renal, 6.87 µM; with HCC-2998 colon, 15.5 µM; in the experiment with HT29 colon, 5.8 µM; in the experiment with MCF7 breast, 14.7 µM. The TGI with NCI/ADR-RES ovarian was 11.9 µM; in the experiment on OVCAR-3 ovarian it was 6.84 µM; with SNB-19 CNS it was greater than 100 µM; in the experiment on U251 CNS, 4.03 µM.

`COc1cccc2c1C(=O)c1c(O)c3c(c(O)c1C2=O)C[C@@](O)(C(=O)COC(=O)c1cccnc1)C[C@@H]3OC1CC(N)C(O)C(C)O1` (some centres undefined): the GI50 is 0.113 µM in the experiment with A498 renal; 0.0774 µM with A549 NSCLC; 0.705 µM in the experiment on CAKI-1 renal; 0.454 µM with HCC-2998 colon; 0.199 µM in the experiment on HT29 colon; 0.033 µM in the experiment on MCF7 breast. The GI50 with NCI/ADR-RES ovarian was 3.95 µM; with OVCAR-3 ovarian it was 0.287 µM; with SNB-19 CNS, 0.0691 µM; in the experiment on U251 CNS, 0.0665 µM. In addition, the TGI came out at 0.334 µM with A498 renal; 0.533 µM in the experiment with A549 NSCLC; 6.25 µM with CAKI-1 renal; 3.5 µM with HCC-2998 colon; 1.53 µM in the experiment on HT29 colon; 2.08 µM in the experiment on MCF7 breast. The TGI in the experiment on NCI/ADR-RES ovarian was greater than 100 µM; in the experiment with OVCAR-3 ovarian, 2.52 µM; in the experiment on SNB-19 CNS, 2.65 µM; in the experiment with U251 CNS, 0.592 µM.

`COc1ccc(S(=O)(=O)N2CCCCC2)cc1NC(=O)c1[nH]c(C)c2c1CCCCC2=O`: the GI50 with A498 renal is 1.08 µM; in the experiment with A549 NSCLC, 2.26 µM; in the experiment with CAKI-1 renal it was 0.419 µM; with HCC-2998 colon it was 1.73 µM; with HT29 colon, 0.822 µM; with MCF7 breast it was 0.666 µM. The GI50 was 3.67 µM with NCI/ADR-RES ovarian, 2.64 µM in the experiment with OVCAR-3 ovarian, 3.8 µM in the experiment with SNB-19 CNS and 2.29 µM in the experiment on U251 CNS. In addition, the total growth inhibition concentration (TGI) in the experiment with A498 renal is 3.98 µM; with A549 NSCLC, 15 µM; with CAKI-1 renal, 56.7 µM; with HCC-2998 colon, 11.1 µM; in the experiment on HT29 colon, 21.7 µM; in the experiment on MCF7 breast, greater than 100 µM. For the same compound, the TGI in the experiment with NCI/ADR-RES ovarian is greater than 100 µM; with OVCAR-3 ovarian, greater than 100 µM; in the experiment with SNB-19 CNS, greater than 100 µM; with U251 CNS it was 70.4 µM.

On to `C=C(C)[C@@H]1CC[C@]2(c3ncc(C)o3)CC[C@]3(C)[C@H](CC[C@@H]4[C@@](C)(CCC#N)[C@H](C(=C)C)CC[C@]43C)[C@@H]12`, for which the GI50 in the experiment with A498 renal is 14.4 µM; in the experiment on A549 NSCLC it was 6.19 µM; with CAKI-1 renal, 2.8 µM; in the experiment with HCC-2998 colon, 3.51 µM; in the experiment on HT29 colon, 3.81 µM; with MCF7 breast, 2.87 µM. Moreover, the GI50 is 3.33 µM with NCI/ADR-RES ovarian, 4.16 µM in the experiment on OVCAR-3 ovarian, 3.66 µM with SNB-19 CNS and 3.54 µM in the experiment with U251 CNS. Further, the TGI with A498 renal was determined as 27.8 µM; with A549 NSCLC it was 22.3 µM; with CAKI-1 renal, 16.1 µM; in the experiment on HCC-2998 colon, 12.4 µM; in the experiment with HT29 colon it was 14.8 µM; in the experiment on MCF7 breast it was 10.5 µM. Also, the TGI with NCI/ADR-RES ovarian was found to be 11.9 µM; in the experiment with OVCAR-3 ovarian it was 15.5 µM; in the experiment on SNB-19 CNS, 14.5 µM; with U251 CNS, 13.6 µM.

On to `Cc1cc(Cl)ccc1OCC(=O)Oc1c(Cl)c(Cl)c(Cl)c(Cl)c1Cl`, for which the TGI in the experiment on A498 renal is 62.9 µM; in the experiment on A549 NSCLC it was 66.3 µM; with CAKI-1 renal it was greater than 100 µM; with HCC-2998 colon, 48.9 µM; in the experiment with HT29 colon it was 69.1 µM; in the experiment with MCF7 breast, 96.7 µM. Further, the TGI in the experiment on NCI/ADR-RES ovarian is 67.6 µM; with OVCAR-3 ovarian, 39 µM; in the experiment with SNB-19 CNS, 75.5 µM; with U251 CNS, 70.4 µM.

Take `CNC1=C(Br)C(=O)C2=C(C1=O)C1C3=C(C(=O)C=CC3=O)C2c2ccccc21` (centres undefined): the GI50 with A498 renal was 24.9 µM; in the experiment with A549 NSCLC, 3.02 µM; in the experiment on CAKI-1 renal, 6.14 µM; in the experiment on HCC-2998 colon, 3.74 µM; in the experiment on HT29 colon it was 2.72 µM; in the experiment with MCF7 breast it was 2.25 µM. The GI50 in the experiment with NCI/ADR-RES ovarian is 4.68 µM; in the experiment with OVCAR-3 ovarian, 5.29 µM; in the experiment with SNB-19 CNS, 14.4 µM; in the experiment with U251 CNS, 2.12 µM. Also, the TGI in the experiment on A498 renal is 40.7 µM; in the experiment with CAKI-1 renal, 13.9 µM; in the experiment with HCC-2998 colon it was 11.4 µM; with HT29 colon, greater than 100 µM; in the experiment on MCF7 breast, 5.62 µM; with NCI/ADR-RES ovarian, 13.4 µM. The results for the TGI in the experiment with OVCAR-3 ovarian, in the experiment on SNB-19 CNS and in the experiment on U251 CNS were 10.9 µM, 67.4 µM and 5.01 µM, respectively.

In the case of `CCCCCCCCOC(=O)c1cc(O)c(O)c(O)c1`, the GI50 with A498 renal was 8.26 µM; with A549 NSCLC it was 12.7 µM; in the experiment on CAKI-1 renal, 0.644 µM; with HCC-2998 colon, 6 µM; in the experiment on HT29 colon, 14.8 µM; with MCF7 breast it was 4.14 µM. In addition, the GI50 in the experiment with NCI/ADR-RES ovarian is 1.52 µM; with OVCAR-3 ovarian, 2.03 µM; in the experiment on SNB-19 CNS it was 5.27 µM; in the experiment on U251 CNS, 3.02 µM. In addition, the TGI came out at 24.7 µM in the experiment with A498 renal; 49 µM with A549 NSCLC; 3.52 µM with CAKI-1 renal; 18.6 µM in the experiment with HCC-2998 colon; 47.6 µM in the experiment with HT29 colon; 26.7 µM in the experiment on MCF7 breast. In addition, the TGI was 10.2 µM in the experiment on NCI/ADR-RES ovarian, 14.9 µM in the experiment with OVCAR-3 ovarian, greater than 58.9 µM in the experiment on SNB-19 CNS and 28.6 µM with U251 CNS.

(Values after PubChem BioAssay (NCI).)
